Measurements as given in paper PMC4980415 (Psychopharmacology, 2016).
Where a name gives a salt, the structure may show the parent alone.

Legend:
[1] = tested on: conditioned avoidance responding in male Wistar rats; experiment: Conditioned avoidance response (CAR); type: in vivo, rat
Protocol: The drug was administered, per os (po), by gavage to rats in a volume of 2 ml/kg body weight. Oral dosing solutions were prepared fresh daily. […] The pH of the dosing solution was adjusted to ~pH 5.5 by dropwise addition of 0.1 N NaOH in saline and volume adjusted by addition of saline in preparation for intraperitoneal (ip) dosing. […] Control treatments were always the vehicle solutions of the corresponding drugs.
Avoidance behavior, escape behavior, escape failures, and inter-trial crosses were recorded, as described here: (1) avoidance (response to CS within 10 s); (2) escape (response to CS + UCS); and (3) escape failure (if the rat was unable to respond to the shock by moving into the opposite compartment within 50 s, the trial was terminated). The inter-trial interval (end of trial to start of new trial) varied randomly between 20 and 40 s. Rats were trained for five consecutive days and adapted to the shuttle box 5 min before each training session. Training sessions consisted of about 20 trials, randomly distributed over 15 min. Only rats that performed at least 90 % avoidance on the last day of training were included in the experiments. All subsequent test sessions were preceded by a pre-test to verify continued performance in the paradigm. Pre-tests and test sessions consisted of approximately ten trials, each randomly distributed over a 7.5-min period. […] Experimental days were always separated by at least two non-experimental days. Experimental tests were separated by at least 2 days to insure drug washout.
Results from the conditioned avoidance responding (CAR) protocol were analyzed using non-parametric procedures.

[2] = target: T1, DA transporter (h), dopamine (Homo sapiens, UniProt Q01959); experiment: Off-target binding, General SEP II panel; conditions: 10 μM ITI-214, mean of n = 2
T1 construct: Caliper Life Sciences (contract screen)
T1 sequence (Q01959 whole entry): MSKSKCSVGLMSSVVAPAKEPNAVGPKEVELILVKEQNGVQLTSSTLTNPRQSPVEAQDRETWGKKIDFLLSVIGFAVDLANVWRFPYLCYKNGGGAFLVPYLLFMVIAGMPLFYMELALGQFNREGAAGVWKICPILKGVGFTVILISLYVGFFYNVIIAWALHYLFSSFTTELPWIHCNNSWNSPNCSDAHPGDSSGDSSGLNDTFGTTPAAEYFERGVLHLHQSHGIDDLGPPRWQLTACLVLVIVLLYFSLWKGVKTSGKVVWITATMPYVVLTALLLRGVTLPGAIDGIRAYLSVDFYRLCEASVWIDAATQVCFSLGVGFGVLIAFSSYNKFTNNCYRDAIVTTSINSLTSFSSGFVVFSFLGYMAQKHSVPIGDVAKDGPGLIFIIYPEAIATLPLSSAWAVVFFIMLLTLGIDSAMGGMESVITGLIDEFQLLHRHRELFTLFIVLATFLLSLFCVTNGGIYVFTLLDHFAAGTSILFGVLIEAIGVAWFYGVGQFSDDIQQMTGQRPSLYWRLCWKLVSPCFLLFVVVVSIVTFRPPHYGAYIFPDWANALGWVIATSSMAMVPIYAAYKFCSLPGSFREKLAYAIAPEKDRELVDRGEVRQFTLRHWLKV

CN1C(=O)c2c(nn(Cc3ccc(-c4cccc(F)n4)cc3)c2Nc2ccccc2)N2C1=N[C@@H]1CCC[C@@H]12 [ITI-214, (6aR,9aS)-2-(4-(6-fluoropyridin-2-yl)benzyl)-5-methyl-3-(phenylamino)-5,6a,7,8,9,9a-hexahydrocyclopenta-[4,5]imidazo[1,2-a]pyrazolo[4,3-e]pyrimidin-4-(2H)-one phosphate salt]
effect on percent avoidances ([1]; 1 mg/kg po alone): no significant effect
effect on number of escape failures ([1]; CAR paradigm): Neither risperidone nor ITI-214 had significant effects
effect on avoidance behavior of rats given risperidone ([1]; ITI-214 1 mg/kg po with risperidone 0.8 mg/kg i.p.): did not affect avoidance behavior
% Binding [2]: 58.70%
